# In patent US20190314377A1, “TREATMENT OF HEMATOLOGICAL MALIGNANCY WITH SMALL MOLECULE NF-KB INHIBITORS” (MEMORIAL SLOAN-KETTERING CANCER CENTER, priority 2016, published 2019):
# Legend:
# [1] = tested on: luciferase-expressing MM.1S cells; experiment: MM.1S xenograft model of multiple myeloma in NSG mice; assay type: in vivo, mouse; conditions: IT-848 10 mg/kg i.p. M/W/F x 4 weeks; Bortezomib 0.5 mg/kg i.p. M/T x 4 weeks
# Experimental: NSG mice received 2.5×10^6 luciferase-expressing MM.1S cells intravenously. After 10 days engraftment was confirmed and mice were assigned to four groups: empty vehicle i.p. M/W/F×4 weeks; Bortezomib 0.5 mg/kg i.p. M/T×4 weeks; IT-848 10 mg/kg i.p. M/W/F×4 weeks; Bortezomib M/T+IT-848 M/W/F×4 weeks. A. Tumor growth was analyzed by in vivo bioluminescence imaging. B. Mean and SEM of bioluminescence intensities are presented. N=7-10 The area under the curve (AUC) was used to summarize the bioluminescence intensity for each subject and a permutation test was performed to determine if there was a difference in the AUCs between groups. P values are as follows: Group 1 vs. 2: 0.008; Group 2 vs. 3: 0.032; Group 1 vs 3: <0.001; Group 2 vs 4: <0.001; Group 1 vs 4: <0.001; Group 3 vs 4: 0.029.
# In tumor xenograft experiments the bioluminescent signal intensity (BLI) of tumor bearing mice was determined weekly. […] The cause of death (tumor versus toxicity) was determined based on the presence of hind leg paralysis. Death in the absence of hind leg paralysis was attributed to toxicity.
# Efficacy studies of IT-848 combined with drugs that are currently used clinically to treat B cell malignancies were also performed. […] Moreover, IT-848 was efficacious in a xenograft model of MM (FIGS. 14, 15A and 15B) and enhanced the efficacy of bortezomib (FIGS. 15A and 15B). Immunodeficient mice received bioluminescent MM.1S cells intravenously and bone marrow engraftment was confirmed by in vivo bioluminescence imaging (BLI) after ten days. Mice were assigned to three treatment groups (IT-848 single agent, bortezomib single agent, combination of IT-848 and bortezomib) and a control group (empty vehicle IP). Onset of hind leg paralysis, which is the clinical endpoint of progressive disease in this model, was delayed in all three treatment groups (FIG. 9).
# [2] = tested on: mouse splenocytes; experiment: Toxicity to healthy cells (DAPI viability, MTS metabolic activity), mouse splenocytes; assay type: cell-based; conditions: 24 hours, 1, 3, 6 and 10 μM
# Experimental: (§1) Mouse splenocytes and human peripheral blood mononuclear cells (PBMC) were incubated for 24 hours in the presence of empty vehicle or 1, 3, 6 and 10 μM of IT-848 or IT-878. Viability (percentage of DAPI-negative cells) was analyzed by flow cytometry and metabolic activity was analyzed by MTS assay. Mean and SEM of relative viability or metabolic activity are presented.
# (§2) Human peripheral blood mononuclear cells (PBMC) were purified from donor blood according to accepted protocols. Mouse splenocytes were purified from mouse spleen using methods known to those skilled in the art.
# [3] = tested on: NF-κB transcriptional activity; experiment: Jurkat/GFP/NF-κB transcriptional reporter assay; assay type: cell-based; conditions: 12 hours; 1, 3, 6 and 10 μM
# Experimental: Jurkat/GFP/NF-κB transcriptional reporter cells were stimulated with TNF-α and incubated for 8 and 22 hours in the presence of empty vehicle or 1, 3 and 6 μM of IT-848 or IT-878. NF-κB transcriptional activity (GFP mean fluorescence intensity) was analyzed by flow cytometry. Mean and SEM of relative fluorescent intensities are presented.
# (§3) Jurkat/GFP/NF-κB transcriptional reporter cells were stimulated with TNF-α, Jurkat/Luciferase/NFAT transcriptional reporter cells were stimulated with PMA/ionomycin, and HepG2/Luciferase/Nrf2-Antioxidant response element (ARE) transcriptional reporter cells were treated with tert-butylhydroquinone. The respective cell lines were incubated for 12 hours in the presence of empty vehicle or 1, 3, 6 and 10 μM of IT-848 or IT-878. NF-κB transcriptional activity was analyzed by flow cytometry, NFAT and Nrf2 transcriptional activities were analyzed by luminescence measurement. Mean and SEM of relative fluorescent or luminescent intensities are presented.
# (§4) A NF-κB/Jurkat/GFP transcription reporter cell line was purchased from System Biosciences. NFAT/Jurkat/Luciferase transcriptional reporter cells were generated at Memorial Sloan-Kettering Cancer Center. HepG2/ARE/Luciferase Nrf2 transcriptional reporter cells were purchased from BPS biosciences.
# [4] = tested on: Nrf2 transcriptional activity; experiment: HepG2/Luciferase/Nrf2-ARE transcriptional reporter assay; assay type: cell-based; conditions: tert-butylhydroquinone treated; 12 hours; 1, 3, 6 and 10 μM
# Experimental: as §3, §4
# [5] = tested on: human peripheral blood mononuclear cells (PBMC); experiment: Toxicity to healthy cells (DAPI viability, MTS metabolic activity), human PBMC; assay type: cell-based; conditions: 24 hours, 1, 3, 6 and 10 μM
# Experimental: as §1, §2
# [6] = tested on: NFAT transcriptional activity; experiment: Jurkat/Luciferase/NFAT transcriptional reporter assay; assay type: cell-based; conditions: PMA/ionomycin stimulated; 12 hours; 1, 3, 6 and 10 μM
# Experimental: as §3, §4
# [7] = tested on: MM.1S and U266 cells; experiment: ROS levels by DCFDA assay in multiple myeloma cells; assay type: cell-based, human
# Experimental: (§5) MM.1S cells, U266 cells or mouse splenocytes were cultured in the presence of empty vehicle or serial dilutions of IT-848. ROS levels were quantified after 4 hours and 24 hours by DCFDA assay.
# (§6) Cells were treated in vitro with IT-848 (compound of Formula I), IT-878 (compound of Formula II) or vehicle solution. Reactive oxygen species (ROS) levels were analyzed by cell labelling with 2′, 7′-dichlorofluorescein diacetate (DCFDA) using a Cellular Reactive Oxygen Species Detection Assay Kit (Abcam, Cambridge, Mass.) ROS levels were analyzed by quantifying the fluorogenic marker DCFDA using flow cytometery (LSR II, BD Bioscience, San Jose, Calif.).
# [8] = tested on: SUDHL4 B cell lymphoma cells; experiment: MTS cell proliferation assay, SUDHL4; assay type: cell-based, human; conditions: 2, 4 and 6 μM, 24 and 48 hours
# Experimental: SUDHL4 human DLBCL cells were incubated for 48 hours in the presence of empty vehicle or 2, 4 and 6 μM of IT-848, IT-878, PS-1145, or ibrutinib, Cell proliferation was analyzed after 24 and 48 hours by MTS assay. Mean and SEM or relative cell growth are presented.
# (§7) TDM8, Ly19, L363, SUDHL4, MM.1S or U266 cells were independently incubated for up to 48 hours in the presence of empty vehicle, IT-compound (2, 4, 6 μM), PS-1145 (2, 4 and 6 μM), or ibrutinib (2, 4 and 6 μM). Cell growth was measured indirectly after 24 and 48 hours by CellTiter 96 Aqueous Non-Radioactive Cell Proliferation Assay (Promega, Madison, Wis.) per manufacturer's instructions. Briefly, tetrazolium compound [-(4,5-dimethylthiazol-2-yl)-5-(3-carboxymethoxyphenyl)-2-(4-sulfophenyl)-2H-tetrazolium, inner salt; MTS] was added to the culture media and the conversion of MTS into formazon was measured by the amount of 490 nm absorbance. The number of viable cells correlates with absorbance at 490 nm. The results are shown in FIGS. 5A-D. Mean and SEM of relative cell growth are presented.
# [9] = tested on: TMD8 cells; experiment: MTS assay, combination with Panobinostat in TMD8 cells; assay type: cell-based, human; conditions: IT-848 4 μM + Panobinostat 0.1 μM; 24 and 48 hours
# Experimental: TMD8 and DLBCL cells were incubated for 48 hours in the presence of empty vehicle, IT-848 (4 μM), Panobinostat (0.1 μM), or a combination of IT-848 and Panobinaostat. Cell proliferation was analyzed after 24 and 48 hours by MTS assay. Mean and SEM of relative cell growth are presented.
# [10] = tested on: U266 multiple myeloma cells; experiment: MTS cell proliferation assay, U266; assay type: cell-based, human; conditions: 2, 4 and 6 μM, 24 and 48 hours
# Experimental: U266 human multiple myeloma cells were incubated for 48 hours in the presence of empty vehicle or 2, 4 and 6 μM of IT-848, IT-878, PS-1145, or ibrutinib, Cell proliferation was analyzed after 24 and 48 hours by MTS assay. Mean and SEM or relative cell growth are presented.
# as §7
# [11] = tested on: interleukin 6 (IL-6); experiment: IL-6 secretion by ELISA in DLBCL and MM cell lines; assay type: cell-based, human; conditions: TMD8, HBL1 and U266 cells; 4 and 6 μM; 12 and 24 hours
# Experimental: TMD8, HBL1 and U266 cells were incubated for 24 hours in the presence of empty vehicle or IT-848 (4 and 6 μM). IL-6 concentrations in the culture media were analyzed after 12 and 24 hours by ELISA. Mean and SEM of relative IL-6 levels (percentage of vehicle) are presented.
# [12] = Pharmacokinetics, plasma or whole blood levels by LC-MS/MS; assay type: in vivo; conditions: 5-10 mg/kg PO, IP or IV; in particular after IP or oral administration
# Experimental: Plasma or whole blood samples were analyzed at several time points after intraperitoneal, intravenous or oral administration of 5-10 mg/kg of IT-848. Samples were analyzed by liquid chromatography-tandem mass spectrometry (LC-MS/MS). IT-848 is cleared slowly after systemic administration.
# [13] = tested on: MM.1S multiple myeloma cells; experiment: MTS cell proliferation assay, MM.1S; assay type: cell-based, human; conditions: 2, 4 and 6 μM, 24 and 48 hours
# Experimental: MM.1S human multiple myeloma cells were incubated for 48 hours in the presence of empty vehicle or 2, 4 and 6 μM of IT-848, IT-878, PS-1145, or ibrutinib, Cell proliferation was analyzed after 24 and 48 hours by MTS assay. Mean and SEM or relative cell growth are presented.
# as §7
# [14] = tested on: TMD8 B cell lymphoma cells; experiment: MTS cell proliferation assay, TMD8; assay type: cell-based, human; conditions: 2, 4 and 6 μM, 24 and 48 hours
# Experimental: TMD8 human DLBCL cells were incubated for 48 hours in the presence of empty vehicle or 2, 4 and 6 μM of IT-848, IT-878, PS-1145, or ibrutinib, Cell proliferation was analyzed after 24 and 48 hours by MTS assay. Mean and SEM or relative cell growth are presented.
# as §7
# [15] = tested on: interleukin 10 (IL-10); experiment: IL-10 secretion by ELISA in DLBCL and MM cell lines; assay type: cell-based, human; conditions: TMD8, HBL1 and U266 cells; 4 and 6 μM; 12 and 24 hours
# Experimental: TMD8, HBL1 and U266 cells were incubated for 24 hours in the presence of empty vehicle or IT-848 (4 and 6 μM). IL-10 concentrations in the culture media were analyzed after 12 and 24 hours by ELISA. Mean and SEM of relative IL-10 levels (percentage of vehicle) are presented.
# [16] = tested on: mouse splenocytes; experiment: ROS levels by DCFDA assay in mouse splenocytes; assay type: cell-based
# Experimental: as §5, §6
# [17] = tested on: HBL1 cells; experiment: MTS assay, combination with Bortezomib in HBL1 cells; assay type: cell-based, human; conditions: IT-848 4 μM + Bortezomib 0.02 μM; 24 and 48 hours
# Experimental: HBL1 human DLBCL cells were incubated for 48 hours in the presence of empty vehicle, IT-848 (4 μM), Bortezomib (0.02 μM), or a combination of IT-848 and Bortezomib. Cell proliferation was analyzed after 24 and 48 hours by MTS assay. Mean and SEM of relative cell growth are presented.
clearance [12],SMILES,onset of hind leg paralysis [1],tumor growth by in vivo bioluminescence imaging (BLI) [1],viability and metabolic activity of healthy cells [2],specificity of inhibition of transcriptional activity [3],effect on Nrf2 transcriptional activity [4],viability and metabolic activity of healthy cells [5],effect on NFAT transcriptional activity [6],ROS levels ([7]; after 24 hours),ROS levels ([7]; after four hours),cell growth (MTS) [8],"effect on activity of Panobinostat (cell growth, MTS) [9]",cell growth (MTS) [10],secretion of IL-6 [11],cell growth (MTS) [13],cell growth (MTS) [14],secretion of IL-10 [15],ROS levels ([16]; after 4 hours),ROS levels ([16]; after 24 hours),"effect on activity of Bortezomib (cell growth, MTS) [17]"
–,"CC(C)C[C@H](NC(=O)[C@H](Cc1ccccc1)NC(=O)c1cnccn1)B(O)O [bortezomib, reference compound]",delayed,efficacious,–,–,–,–,–,–,–,–,–,–,–,–,–,–,–,–,–
–,"COCCCCOc1ccc2cc3c(=O)[nH]c(=O)nc-3oc2c1Cl [IT-878, 9-chloro-8-(4-methoxybutoxy)-2H-chromeno[2,3-d]pyrimidine-2,4(3H)-dione]",–,–,acceptable level of compromise,specific to NF-kB,spared,acceptable level of compromise,spared,–,–,–,–,–,–,–,–,–,–,–,–
slow,"CCCCCCOc1ccc2cc3c(=O)[nH]c(=O)nc-3oc2c1Cl [IT-848, 9-chloro-8-(hexyloxy)-2H-chromeno[2,3-d]pyrimidine-2,4(3H)-dione]",delayed,efficacious,acceptable level of compromise,specific to NF-kB,spared,acceptable level of compromise,spared,decreased levels,unchanged or increased levels,inhibits growth,enhances the activity,inhibits growth,decreased,inhibits growth,inhibits growth,decreased,did not alter levels,small increase,enhances the activity
